Holding throughout (assay type): physicochemical
A short description of series [1]: Compaction testing (Heckel analysis). Conditions: for True Density: Helium Pycnometry; for Loss on Drying - end: end of compression testing; for Loss on Drying - end / Loss on Drying - start: 105° C.; for Yield pressure slow: punch speed 0.1 mm/s; for Yield pressure fast: punch speed 300 mm/s; for Loss on Drying - start: start of compression testing. The source says: Samples of Form 1 and Form 3 were subjected to Heckel analysis to determine the yield pressure of the material upon compression under controlled conditions. A known weight of material was compressed within a 10 mm diameter die with flat faced punches moving at a set speed. The die was lubricated with magnesium stearate in acetone. The force on the punch was accurately measured at frequent intervals whilst the displacement of the punches was used to calculate the volume of the powder. The yield pressure was calculated at slow (0.1 mm/s) and fast (300 mm/s) punch speeds to assess the time dependant component to deformation of the material. The true density of the material was determined by Helium Pycnometry (Micromeritics AccuPyc II 1340) using a purge pressure and run fill pressure of 19.5 psig and an equilibration rate of 0.02 psig. Testing was performed in duplicate. Temperature and humidity were monitored at intervals during the testing.
The data were analysed by the Compaction Analysis software programme to generate values for yield pressure (Py) using the Heckel equation: ln(1/1−D)=kP+A where D=the relative density of the compact; P=Pressure applied; and K=Gradient of the line in the linear region [Heckel, Trans. Metall. Soc. AIME 221 (1961)1001-1008].
Strain Rate Sensitivity (SRS) can be calculated to determine whether the deformation characteristics of the material change with the rate of applied force. The yield pressure at high speed compression is compared to that at slow speed using the following equation [Roberts and Roe, Chem. Eng. Sci. 42(1987) p. 903]. % SRS=100×[(Py Fast−Py Slow)/Py Slow]
Loss on drying was carried out on the samples at the start and at the end of compression testing to monitor for moisture absorption during testing. A sample size of 2.0 g±0.2 g was spread onto an aluminium tray and dried until stable at 105° C. using a Mettler HB43-S Halogen moisture balance.

Series [2] is described as follows: Variable humidity XRPD (VH-XRPD) at 25° C. The source says:
Non-ambient conditions: XRPD diffractograms were collected on a PANalytical Empyrean diffractometer using Cu Kα radiation (45 kV, 40 mA) in reflection geometry. The instrument is fitted with an Anton Paar CHC plus^+ stage fitted with graphite/Kapton windows and equipped with air cooling coupled with a proUmid MHG32 Modular Humidity Generator or a low vacuum pump system using an Edwards RV3 pump. A programmable divergence slit (in automatic mode), with a 10 mm fixed incident beam mask, Ni filter and 0.04 rad Soller slits were used on the incident beam. A PIXcel^3D detector, placed on the diffracted beam, was fitted with a programmable anti-scatter slit (in automatic mode) and 0.04 rad Soller slits. The software used for data collection was X'Pert Data Collector and the data analysed and presented using Diffrac Plus EVA or Highscore Plus. For variable humidity (VH-XRPD) experiments the samples were prepared and analysed in an Anton Paar chromed low-profile sample holder with silicon wafer insert. The measurement parameters are as per the standard screening data collection method (detailed above). For all variable humidity XRPD experiments, a pattern was recorded every hour. […] The Form 1 sample was loaded into the VH chamber, which was set to 40% RH and 25° C. and then the RH was decreased in 10% decrements to 10% RH followed by increasing the RH in 10% increments to 90% RH, while maintaining the temperature at 25° C. […] The sample then quickly transitioned from Form 1 at 80% RH to Form 2 at 90% RH. A variable humidity (VH) XRPD experiment was performed to examine how Form 3 exists under different RH conditions. […] The sample was stable as Form 2 for 8 hours at 80% RH. At 90% RH Form 2 existed for 2 hours before the sample deliquesced in the humidity chamber.

Series [3] is described as follows: Kinetic solubility in biorelevant media. The settings on record: for Kinetic solubility, Mean conc: 37° C. The method, then: A small-scale kinetic solubility study was carried out at a nominal concentration of 200-400 mg/ml to ensure solid material remained at the end of the experiment for XRPD analysis. Approximately 100 mg of sample—Form 1 (batch ref L17-0004-S-8002) or Form 3 (Example 5.4.1 (batch ref. 491PAL22; A-19-0132)) was weighed into a 1 ml vial and 250 μl of 0.1 M HCl was added to the vial for the 15 and 30 minute timepoints and 500 μl of a 1:1 mixture of 0.1 M HCl and FaSSIF was added to the vial for the 60 and 180 minute timepoints, The vial was agitated and maintained at 37° C.
The study was carried out in duplicate. Each sample was centrifuged to remove suspended solids. An aliquot of the supernatant was transferred to a second vial for further centrifugation and then transferred to an LC vial, diluted with an appropriate solvent and analysed by HPLC for parent compound. The residual solids were analysed by XRPD.

Setting [4] is: 15 mins (simulated gastric), 0.1 M HCl, Form 3 = Example 5.4.1.
The mark [5] stands for this setting: 30 mins (simulated gastric), 0.1 M HCl.
Setting [6] is: 60 mins (simulated intestinal), 1:1 0.1 M HCl and FaSSIF.
Where [7] appears, read: 180 mins (simulated intestinal), 1:1 0.1 M HCl and FaSSIF.

Several values for one entry are separate records, joined by “and”; a condition that tells them apart may be missing. Equal entries are not always repeated.

Consider `C[S+]([O-])CCCCN=C=S.OCC1OC2OC3C(CO)OC(OC4C(CO)OC(OC5C(CO)OC(OC6C(CO)OC(OC7C(CO)OC(OC1C(O)C2O)C(O)C7O)C(O)C6O)C(O)C5O)C(O)C4O)C(O)C3O` (centres unmarked) [Form 1], for which the compaction classification result in series [1] was “soft ductile”. Moreover, the “sticking on punch or die wall” value in series [1] is on record as “no evidence of sticking”. For the same compound, in series [1], the “True Density” value stood at 1.4586 g/mL. The “Loss on Drying - end” value in series [1] is listed as 4.25% w/w. In addition, the Yield pressure slow in series [1] is 76 MPa and 76.3 (±1.05) MPa. Also, in series [1], the Yield pressure fast was 89 MPa and 88.9 (±2.32) MPa. In series [1], the “Loss on Drying - start” value amounted to 4.07% w/w. The “solid state form (VH-XRPD)” value was “intermediate phase” in series [2] (Form 1 sample, RH reduced from 40% to 30% RH, 25° C.); “Form 3” in series [2] (Form 1 sample, RH reduced to 20% RH, 25° C.); “intermediate phase” in series [2] (Form 1 sample, after drying to 10% RH, RH increased to 70% RH); “Form 1” in series [2] (Form 1 sample, after drying to 10% RH, RH increased to 80% RH); “Form 2” in series [2] (Form 1 sample, after drying to 10% RH, RH increased to 90% RH). Further, the “XRPD analysis of residual solids” value in series [3] (15 mins (simulated gastric)), in series [3] (30 mins (simulated gastric)), in series [3] (60 mins (simulated intestinal)) and in series [3] (180 mins (simulated intestinal)) was “Form 1” in each case. Moreover, the “Kinetic solubility, Mean conc” value was “approximately 300 mg/ml” in series [3] (setting [4]); 319 mg/mL in series [3] (15 mins (simulated gastric), 0.1 M HCl, Form 3 = Example 5.4.1, listed as 1); 318 mg/mL in series [3] (setting [5]); “approximately 180 mg/ml” in series [3] (setting [6]); 191 mg/mL in series [3] (60 mins (simulated intestinal), 1:1 0.1 M HCl and FaSSIF, listed as 1); “approximately 180 mg/ml” in series [3] (setting [7]). Also, the “Kinetic solubility, Mean conc” value in series [3] (180 mins (simulated intestinal), 1:1 0.1 M HCl and FaSSIF, listed as 1) was 180 mg/mL.
For `C[S+]([O-])CCCCN=C=S.OC[C@H]1O[C@@H]2O[C@H]3[C@H](O)[C@@H](O)[C@@H](O[C@H]4[C@H](O)[C@@H](O)[C@@H](O[C@H]5[C@H](O)[C@@H](O)[C@@H](O[C@H]6[C@H](O)[C@@H](O)[C@@H](O[C@H]7[C@H](O)[C@@H](O)[C@@H](O[C@H]1[C@H](O)[C@H]2O)O[C@@H]7CO)O[C@@H]6CO)O[C@@H]5CO)O[C@@H]4CO)O[C@@H]3CO` [Form 3], the compaction classification result in series [1] is on record as “moderately hard brittle/ductile”. The “sticking on punch or die wall” value in series [1] is “no evidence of sticking”. Also, in series [1], the “True Density” value is 1.4562 g/mL. Further, the “Loss on Drying - end” value in series [1] was 1.13% w/w. In addition, the Yield pressure slow in series [1] was 109 MPa and 108.7 (±2.90) MPa. In addition, the Yield pressure fast in series [1] is 140 MPa and 140.4 (±3.65) MPa. Also, in series [1], the “Loss on Drying - start” value turned out to be 1.99% w/w. In addition, the “RH at which the form starts to convert to a different form” value in series [2] (25° C., increasing RH) is recorded as 70%. Moreover, the “solid state form (VH-XRPD)” value in series [2] (Form 3 sample, RH decreased to 70% RH, persisted to 40% RH) is on record as “Form 2 converted to Form 1”; in series [2] (Form 3 sample, RH raised from 40% up to 60%, 25° C.) it was “Form 3 is maintained”; in series [2] (Form 3 sample, RH raised to 70%), “intermediate phase”; in series [2] (Form 3 sample, RH raised to 80%), “Form 2”; in series [2] (Form 3 sample, after dropping from 90% to 80% RH), “Form 2 returned as a highly crystalline material”. In series [2] (Form 3 sample, at 80% RH), the “time sample was stable as Form 2 (VH-XRPD)” value is 8 h. In series [2] (Form 3 sample, at 90% RH), the “time Form 2 existed before the sample deliquesced (VH-XRPD)” value worked out at 2 h. Moreover, the “XRPD analysis of residual solids” value in series [3] (15 mins (simulated gastric)) and in series [3] (30 mins (simulated gastric)) was “Form 1” each time. The “Kinetic solubility, Mean conc” value in series [3] (setting [4]) is “approximately 300 mg/ml”; in series [3] (15 mins (simulated gastric), 0.1 M HCl, Form 3 = Example 5.4.1, listed as 3) it was 298 mg/mL; in series [3] (setting [5]) it was 298 mg/mL; in series [3] (setting [6]) it was “approximately 180 mg/ml”; in series [3] (60 mins (simulated intestinal), 1:1 0.1 M HCl and FaSSIF, listed as 3), 171 mg/mL; in series [3] (setting [7]) it was “approximately 180 mg/ml”. Further, the “Kinetic solubility, Mean conc” value in series [3] (180 mins (simulated intestinal), 1:1 0.1 M HCl and FaSSIF, listed as 3) was 157 mg/mL.

The values above are taken from patent publication US12590057B2, “Crystalline complexes” (Theracryf PLC, priority 2020, dated 2026).
